# Measured values reported in patent publication US20240390471A1, “COMPOUNDS AND ADJUVANT FORMULATIONS USEFUL IN PNEUMOCOCCAL VACCINES” (Merck Sharp & Dohme LLC, priority 2023, published 2024).
# Legend:
# [1] = test system: S. pneumoniae serotypes of PCV13; conditions: PCV13 plus 3M-052 compared to PCV13 alone; cited from earlier work
# [2] = molecular target: T1, human TLR8 (Homo sapiens, UniProt Q9NR97); assay: Cell-based TLR 7/8 assay, HEK-Blue TLR8 cells (SEAP reporter); conditions: based on Compound concentration only; Compounds formulated as SNEs; read-out: huTLR8 EC50 (converted)
# T1 construct: host or cells: HEK-Blue 293 cells expressing human TLR8
# T1 sequence (Q9NR97 27-1041): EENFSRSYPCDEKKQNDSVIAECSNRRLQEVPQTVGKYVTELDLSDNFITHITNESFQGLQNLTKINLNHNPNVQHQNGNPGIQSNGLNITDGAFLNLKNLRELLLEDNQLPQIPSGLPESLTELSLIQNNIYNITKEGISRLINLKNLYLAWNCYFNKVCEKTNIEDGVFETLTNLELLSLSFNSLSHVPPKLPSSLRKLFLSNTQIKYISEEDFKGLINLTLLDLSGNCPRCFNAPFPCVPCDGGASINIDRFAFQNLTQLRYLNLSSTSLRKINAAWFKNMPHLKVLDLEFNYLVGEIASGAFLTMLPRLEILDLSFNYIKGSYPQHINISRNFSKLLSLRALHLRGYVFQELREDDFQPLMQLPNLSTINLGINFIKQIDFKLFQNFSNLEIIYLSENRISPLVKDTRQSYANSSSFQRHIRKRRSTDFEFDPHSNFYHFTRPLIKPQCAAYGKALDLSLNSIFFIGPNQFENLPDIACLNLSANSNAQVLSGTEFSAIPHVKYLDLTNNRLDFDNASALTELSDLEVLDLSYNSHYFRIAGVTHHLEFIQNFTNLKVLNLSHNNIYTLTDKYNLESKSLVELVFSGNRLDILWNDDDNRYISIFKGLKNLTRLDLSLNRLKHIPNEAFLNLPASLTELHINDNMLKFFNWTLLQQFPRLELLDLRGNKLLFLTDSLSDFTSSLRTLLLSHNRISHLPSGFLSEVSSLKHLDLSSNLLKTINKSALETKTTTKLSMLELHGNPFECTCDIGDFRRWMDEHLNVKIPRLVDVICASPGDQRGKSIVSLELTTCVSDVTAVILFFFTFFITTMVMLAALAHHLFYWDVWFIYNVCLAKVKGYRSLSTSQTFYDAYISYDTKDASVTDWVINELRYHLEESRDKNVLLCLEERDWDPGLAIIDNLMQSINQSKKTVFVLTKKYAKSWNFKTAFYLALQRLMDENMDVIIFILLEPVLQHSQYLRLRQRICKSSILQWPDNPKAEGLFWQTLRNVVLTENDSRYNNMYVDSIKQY
# Protocol: (§1) HEK-Blue™ TLR7 and TLR8 cells (InvivoGen) were designed to assess the stimulation of TLR7 and TLR8 by monitoring the activation of NF-κB and AP-1. Compound B-1-SNE samples were diluted 1:2 across an 8-point titration in diluent buffer histidine/PS-20 in a sterile V-bottom plate. 20 μL of samples were transferred to corresponding wells of two flat bottom assay plates. Media was aspirated from HEK-Blue™ human TLR 7 and TLR 8 cells (T-75 flasks) and gently rinsed with pre-warmed (37° C.) DPBS for a total volume of 5 mL/flask. The DPBS was gently removed from the cells and cells were gently manually dislodged and resuspended in 2 mL of DPBS. Cell assay suspensions were then prepared at approximately 2.2×10^5 cells per mL of HEK-Blue™ detection medium (InvivoGen). 180 μL of cell suspension in detection medium was added to each well of the two flat bottom assay plates containing the diluted Compound B-1-SNE samples for a final dilution of sample equaling 1:10 (180 μL of cell suspension in detection medium and 20 μL of sample). The cells were then incubated at 37° C. in 5% CO2 for 20 hrs. The reporter gene, NF-Kb, induces the production of secreted embryonic alkaline phosphatase (SEAP) when stimulated and can be monitored using the vendor supplied SEAP detection kit. SEAP colorimetric changes were read at an absorbance of 640 nm using a SpectroMax Stakmax plate reader. […] EC50 values were calculated based on total Compound B-1-SNE concentration using GraphPad Prism Software and analyzed using agonist vs. response variable slope (four parameters) least squares fit.
# (§2) Further to the description in Example 10, a cell-based activation system was used to assess activity of the Compound-formulated nanoemulsion systems, prepared as described in examples, supra. HEK-Blue™ TLR7 and TLR8 cells (InvivoGen) were designed to assess the stimulation of TLR7 and TLR8 by monitoring the activation of NF-κB and AP-1. Compound-SNE samples were diluted 1:2 across an 8-point titration in diluent buffer histidine/PS-20 in a sterile V-bottom plate. 20 μL of samples were transferred to corresponding wells of two flat bottom assay plates. Media was aspirated from HEK-Blue™ human TLR 7 and TLR 8 cells (T-75 flasks) and gently rinsed with pre-warmed (37° C.) DPBS for a total volume of 5 mL/flask. The DPBS was gently removed from the cells and cells were gently manually dislodged and resuspended in 2 mL of DPBS. Cell assay suspensions were then prepared at approximately 2.2×10^5 cells per mL of HEK-Blue™ detection medium (InvivoGen). 180 μL of cell suspension in detection medium was added to each well of the two flat bottom assay plates containing the diluted Compound-SNE samples for a final dilution of sample equaling 1:10 (180 μL of cell suspension in detection medium and 20 μL of sample). The cells were then incubated at 37° C. in 5% CO2 for 20 hrs. The reporter gene, NF-Kb, induces the production of secreted embryonic alkaline phosphatase (SLAP) when stimulated and can be monitored using the vendor supplied SLAP detection kit. SLAP colorimetric changes were read at an absorbance of 640 nm using a SpectroMax Stakmax plate reader. EC50s were calculated based on Compound concentration only, not total Compound-SNE concentration (Table 6) using GraphPad Prism Software and analyzed using agonist vs. response variable slope (four parameters) least squares fit.
# [3] = molecular target: T2, human TLR7 (Homo sapiens, UniProt Q9NYK1); assay: Cell-based TLR 7/8 assay, HEK-Blue TLR7 cells (SEAP reporter); conditions: based on Compound concentration only; Compounds formulated as SNEs; read-out: huTLR7 EC50 (converted)
# T2 construct: host or cells: HEK-Blue 293 cells expressing human TLR7
# T2 sequence (Q9NYK1 27-1049): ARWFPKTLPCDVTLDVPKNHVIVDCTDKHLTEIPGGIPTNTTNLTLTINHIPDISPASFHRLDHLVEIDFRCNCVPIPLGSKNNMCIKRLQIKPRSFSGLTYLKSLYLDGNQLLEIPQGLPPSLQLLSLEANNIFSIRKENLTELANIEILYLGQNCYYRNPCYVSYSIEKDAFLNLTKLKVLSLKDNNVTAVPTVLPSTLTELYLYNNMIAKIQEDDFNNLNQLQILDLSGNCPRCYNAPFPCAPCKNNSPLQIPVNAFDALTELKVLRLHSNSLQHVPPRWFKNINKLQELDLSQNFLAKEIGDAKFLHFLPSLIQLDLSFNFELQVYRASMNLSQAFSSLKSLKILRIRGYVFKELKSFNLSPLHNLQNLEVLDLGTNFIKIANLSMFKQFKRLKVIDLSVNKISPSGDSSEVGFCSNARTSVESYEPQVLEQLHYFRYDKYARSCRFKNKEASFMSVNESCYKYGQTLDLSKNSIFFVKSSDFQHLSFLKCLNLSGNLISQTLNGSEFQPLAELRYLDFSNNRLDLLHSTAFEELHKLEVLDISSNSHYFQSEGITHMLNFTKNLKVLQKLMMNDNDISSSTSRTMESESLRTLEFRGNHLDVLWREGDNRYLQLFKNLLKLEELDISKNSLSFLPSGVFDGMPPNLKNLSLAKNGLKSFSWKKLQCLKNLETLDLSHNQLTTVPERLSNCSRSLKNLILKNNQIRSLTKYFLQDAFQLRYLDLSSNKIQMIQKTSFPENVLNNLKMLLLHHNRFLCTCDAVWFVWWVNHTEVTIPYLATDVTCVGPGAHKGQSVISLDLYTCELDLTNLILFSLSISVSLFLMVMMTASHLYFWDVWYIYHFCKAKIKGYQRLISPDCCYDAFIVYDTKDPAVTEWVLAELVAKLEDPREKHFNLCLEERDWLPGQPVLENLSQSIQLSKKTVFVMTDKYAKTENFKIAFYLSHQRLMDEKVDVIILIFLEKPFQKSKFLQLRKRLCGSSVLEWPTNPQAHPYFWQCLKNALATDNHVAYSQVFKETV
# Protocol: as §1, §2
Structure (SMILES),serotype specific antibody responses (binding titers and opsonophagocytic killing) [1],EC50 [2],EC50 [3]
CCCCCCCCCCCCCCCCCC(=O)NCCCCOn1c(CCCC)nc2c(N)nc3ccccc3c21 [Compound 3M-052],accelerated and enhanced serotype specific antibody responses,,
"CCCCCCCCCCCCCCCCCC(=O)NCCCNC(=O)N1CCN(c2ccc(Cn3cc4nc(N)nc(NCCCC)c4n3)c(OC)c2)CC1 [Compound D-2, 4-(4-((5-amino-7-(butylamino)-2H-pyrazolo[4,3-d]pyrimidin-2-yl)methyl)-3-methoxyphenyl)-N-(3-stearamidopropyl)piperazine-1-carboxamide]",,5.82 µM,17.7 µM
"CCCCCCCCCCCCCCCCCC(=O)NCCCOC(=O)N1CCN(c2ccc(Cn3cc4nc(N)nc(NCCCC)c4n3)c(OC)c2)CC1 [Compound D-3, 3-stearamidopropyl 4-(4-((5-amino-7-(butylamino)-2H-pyrazolo[4,3-d]pyrimidin-2-yl)methyl)-3-methoxyphenyl)piperazine-1-carboxylate]",,13.8 µM,23.7 µM
